Experimental data reported in US20260207604A1, “COMPOUND AND USE THEREOF” (ONQUALITY PHARMACEUTICALS CHINA LTD., priority 2022, published 2026).
Read-outs that look alike come from different tables or passages of the source. Each block holds one compound with its values, some of them ahead of it.

Experiments:
[1] = test system: Irinotecan-induced constipation model; experiment: Irinotecan-induced constipation model; type: in vivo, Sprague-Dawley rats; details: irinotecan 260 mg/kg once a day, 1 day, rats
From the text: Sprague-Dawley rats (180-200 g, 7-8 weeks old, Jihui) were acclimated for 7 days and randomly divided into three groups: control group, irinotecan group, and CDK inhibitor group, with 10 rats per group. The control group received the same vehicle orally as the CDK inhibitor group, followed by an injection of the same vehicle as the irinotecan group; the irinotecan group received the same oral vehicle as the CDK inhibitor group, followed by an injection of irinotecan; the CDK inhibitor group received the CDK inhibitor orally, followed by an injection of irinotecan.
From Day 2 to Day 7, the degree of constipation was assessed for each rat based on the following score:
Constipation assessment: Feces excreted within a 3-hour period were collected and evaluated for morphology and weight using an electronic balance. Stool reduction rate was calculated according to the method of Ji Eun Kim (Lab Anim Res. 2016 December; 32(4): 231-240). Stool reduction rate (%)=(Control group−Irinotecan or CDK inhibitor group)/Control group×100%.
The constipation relief rate of the CDK inhibitor was calculated as follows: Relief rate (%)=([…])/Irinotecan group stool reduction rate×100%.

[2] = test system: Human colorectal cancer COLO205 cells; experiment: Cell apoptosis assay (Caspase-Glo 3/7), 5-FU-induced apoptosis; type: cell-based
Description: The Caspase-Glo® 3/7 assay was employed to evaluate the protective effect of the compounds of the present invention against 5-fluorouracil (5-FU)-induced apoptosis. Human colorectal cancer COLO205 cells were cultured in RPMI 1640 medium (Invitrogen) in an incubator at 37° C. with 5% CO2.
COLO205 cells were seeded in 96-well plates at a density of 4,000 cells per well and incubated overnight. On the following day, serially diluted concentrations of Compound 1 were added to the wells and incubated for 16 hours. Afterward, 5-FU was added and the cells were incubated for an additional 48 hours. Subsequently, Caspase-Glo® 3/7 reagent (100 μL) was added to each well. The cells were mixed on an orbital shaker for 10 min and incubated at room temperature for 2 h. After an additional 10-minute incubation, the plate was measured using the Envision instrument and the data was processed. Relief rate (%)=(5-FU group−CDK group)/5-FU group×100%.

CDK4/cyclin D = CDK4/cyclin D (Homo sapiens, UniProt P11802); experiment: KinaseProfile radiometric protein kinase assay, CDK4/cyclin D; type: biochemical
Description: The KinaseProfile radiometric protein kinase assay was used to evaluate the inhibitory activity of the compounds against CDK2/cyclin E, CDK4/cyclin D, CDK6/cyclin D, CDK7/cyclin H and CDK9/cyclin T.
The compounds were prepared in 100% DMSO at a final 50× stock concentration. The working stock solution was added as the first component to the assay wells. CDK2/cyclin E, CDK4/cyclin D, CDK6/cyclin D, CDK7/cyclin H, and CDK9/cyclin T were added in their respective kinase buffers: (CDK4: 8 mM MOPS pH 7.0, 0.2 mM EDTA, 0.03% BSA, 0.03% Tween 20, 20 mM DTT, and 0.2 mg/ml Rb fragment, 10 mM Magnesium acetate; CDK2, CDK6: 8 mM MOPS pH 7.0, 0.2 mM EDTA, 0.1 mg/mL histone H1, 10 mM Magnesium acetate; CDK7: 8 mM MOPS pH 7.0, 0.2 mM EDTA, 500 μM peptide, 10 mM Magnesium acetate; CDK9: 8 mM MOPS pH 7.0, 0.2 mM EDTA, 100 μM […], 10 mM Magnesium acetate) and [γ-^33 P-ATP] was included in the reaction mixture. The reaction was initiated by the addition of the Mg/ATP mixture and incubated at room temperature for 40 minutes. The reaction was terminated by the addition of 0.5% phosphoric acid. Then, 10 μL of the reaction mixture was spotted onto P30 filter pads, washed four times (1 minute each) with 0.425% phosphoric acid, followed by a single wash with methanol. The pads were then dried and counted. The data were recorded, inhibition rates were calculated, and IC50 values were determined accordingly. Table 2 summarizes the in vitro enzymatic inhibitory activity of the compounds of the present application.

[3] = Single-dose intravenous and oral pharmacokinetic study in mice; type: in vivo, Balb/c mice
Description: Twenty-seven male Balb/c mice were randomly divided into 3 groups, 9 mice in each group. Group 1: mice received an intravenous (IV) dose of Compound 1 at 5 mg/kg with a dosing volume of 5 mL/kg. Blood samples were collected at 0.083, 0.25, 0.5, 1, 2, 4, 6, 8, and 24 hours post-dose using a staggered sampling method. Group 2: mice received an oral (gavage) dose of Compound 1 at 50 mg/kg with a dosing volume of 10 mL/kg. Blood samples were collected at 0.25, 0.5, 1, 2, 4, 6, 8, and 24 hours post-dose using a staggered sampling method. Group 3: mice received an oral (gavage) dose of palbociclib at 50 mg/kg with a dosing volume of 10 mL/kg. Blood samples were collected at 1, 3, 4, 6, 8, 10, 12, and 24 hours post-dose using a staggered sampling method. For each group, 3 samples were collected at each time point. Plasma was separated by centrifugation and stored at −70° C. The concentrations of Compound 1 or palbociclib in plasma were measured using LC-MS/MS.

[4] = Intestinal tissue distribution study following a single oral administration in rats; type: in vivo, Sprague Dawley rats; details: male rats, single oral 25 mg/kg; for Kp: read-out: Tissue-to-plasma concentration ratio
Description: Nine male Sprague Dawley rats were orally administered Compound 1 at a dose of 25 mg/kg with a dosing volume of 10 mL/kg using purified water as the vehicle. At 0.25, 2, and 6 hours post-dosing, three animals were euthanized at each time point. A 200 μL whole blood sample was collected via cardiac puncture and plasma was separated by centrifugation.
The duodenum, jejunum, ileum, and colon were collected, contents removed, rinsed with ice-cold water, and surface moisture was blotted with filter paper before weighing. For each gram of tissue, 5 mL of methanol-water (1:3, v/v) was added for homogenization. The drug concentrations in plasma and intestinal tissue homogenates of each intestinal segment tissue were measured using LC-MS/MS.

[5] = 25 mg/kg oral, 4 hours before irinotecan and 8 hours after irinotecan
[6] = 50 mg/kg oral, 6 hours before irinotecan and 6 hours after irinotecan
[7] = 100 mg/kg oral, 4 hours before irinotecan and 8 hours after irinotecan
[8] = 100 mg/kg oral, 6 hours before irinotecan and 6 hours after irinotecan
[9] = mouse, male Balb/c mice, IV 5 mg/kg, plasma
[10] = mouse, male Balb/c mice, PO 50 mg/kg, plasma
[11] = 5 mg/kg oral, 4 hours before irinotecan and 8 hours after irinotecan
[12] = 50 mg/kg oral, 4 hours before irinotecan and 8 hours after irinotecan
[13] = 10 mg/kg oral, 4 hours before irinotecan and 8 hours after irinotecan
[14] = 25 mg/kg oral, 6 hours before irinotecan and 6 hours after irinotecan

Sequence of CDK4/cyclin D (P11802 whole entry): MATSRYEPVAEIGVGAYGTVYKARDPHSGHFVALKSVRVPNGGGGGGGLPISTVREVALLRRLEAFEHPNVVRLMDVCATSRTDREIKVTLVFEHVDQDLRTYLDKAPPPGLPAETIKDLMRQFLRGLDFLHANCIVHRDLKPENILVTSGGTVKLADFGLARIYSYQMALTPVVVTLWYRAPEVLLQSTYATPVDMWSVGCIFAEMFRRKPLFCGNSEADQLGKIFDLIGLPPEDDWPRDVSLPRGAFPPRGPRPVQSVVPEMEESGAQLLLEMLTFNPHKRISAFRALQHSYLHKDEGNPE
Sequence of CDK4/cyclin D (P30281 whole entry partner): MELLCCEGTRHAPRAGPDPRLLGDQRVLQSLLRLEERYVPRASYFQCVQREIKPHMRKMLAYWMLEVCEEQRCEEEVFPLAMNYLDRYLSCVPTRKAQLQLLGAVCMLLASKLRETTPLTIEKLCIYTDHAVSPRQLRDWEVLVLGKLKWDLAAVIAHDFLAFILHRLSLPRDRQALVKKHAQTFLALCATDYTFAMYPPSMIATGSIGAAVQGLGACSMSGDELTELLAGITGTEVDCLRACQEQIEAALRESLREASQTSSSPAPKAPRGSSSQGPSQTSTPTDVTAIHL

SMILES: CC(=O)c1c(C)c2c(n(C3CCCC3)c1=O)=NC(Nc1ccc(N3CCN(S(=O)(=O)NCCN)CC3)cn1)NC=2 (stereo not drawn) [Compound 1]
constipation relief rate ([1]; 2.5 mg/kg oral, 4 hours before irinotecan and 8 hours after irinotecan): 20%
constipation relief rate ([1]; 5 mg/kg oral, 6 hours before irinotecan and 6 hours after irinotecan): 30%
constipation relief rate [1, 5]: 75%
constipation relief rate [1, 6]: 50%
constipation relief rate [1, 7]: 40%
constipation relief rate [1, 8]: 40%
Relief rate of 5-FU -induced cell apoptosis ([2]; concentration 0.1 μM): 30%
Relief rate of 5-FU -induced cell apoptosis ([2]; concentration 1 μM): 60%
Relief rate of 5-FU -induced cell apoptosis ([2]; concentration 5 μM): 80%
Relief rate of 5-FU -induced cell apoptosis ([2]; concentration 25 μM): 40%
IC50 (CDK4/cyclin D): < 0.05 µM
F ([3]; male Balb/c mice, PO 50 mg/kg vs IV 5 mg/kg): 0.6%
plasma concentration following oral administration compared with palbociclib ([3]; mice, PO 50 mg/kg, in words): significantly lower than that of palbociclib
AUC(0-t) [3, 9]: 670 ng·h/mL
clearance [3, 9]: 119 mL/min/kg
half-life [3, 9]: 2.69 h
Vd ([3]; mouse, male Balb/c mice, IV 5 mg/kg, plasma, read-out: Vdss): 11 L/kg
AUC(0-t) [3, 10]: 39.2 ng·h/mL
Cmax [3, 10]: 21 ng/mL
Tmax [3, 10]: 1 h
Kp ([4]; Sprague Dawley, rat, Colon, ratio of AUC values): 502
Kp ([4]; Sprague Dawley, rat, Ileum, ratio of AUC values): 4750
Kp ([4]; Sprague Dawley, rat, Jejunum, ratio of AUC values): 4300
AUC(0-t) ([4]; Sprague Dawley, rat, Plasma, read-out: AUC0-t): 1.26 ng·h/mL
AUC(0-t) ([4]; Colon): 632 ng·h/g
AUC(0-t) ([4]; Duodenum): 19300 ng·h/g
Tissue-to-plasma concentration ratio ([4]; Duodenum, ratio of AUC values): 15300
AUC(0-t) ([4]; Ileum): 5980 ng·h/g
AUC(0-t) ([4]; Jejunum): 5420 ng·h/g

IC50 (CDK4/cyclin D): < 0.05 µM
SMILES: CC(=O)c1c(C)c2cnc(Nc3ccc(N4CCN(S(=O)(=O)NCC(C)(C)N)CC4)cn3)nc2n(C2CCCC2)c1=O [Compound 2]
constipation relief rate [1, 11]: 25%
constipation relief rate [1, 12]: 80%
constipation relief rate [1, 8]: 80%
constipation relief rate ([1]; 150 mg/kg oral, 6 hours before irinotecan and 6 hours after irinotecan): 60%
Relief rate of 5-FU -induced cell apoptosis ([2]; concentration 1 μM): 40%
Relief rate of 5-FU -induced cell apoptosis ([2]; concentration 5 μM): 50%
Relief rate of 5-FU -induced cell apoptosis ([2]; concentration 10 μM): 70%
Relief rate of 5-FU -induced cell apoptosis ([2]; concentration 50 μM): 40%

IC50 (CDK4/cyclin D): < 0.05 µM
SMILES: CC(=O)c1c(C)c2cnc(Nc3ccc(N4CCN(S(=O)(=O)NCC(C)N)CC4)cn3)nc2n(C2CCCC2)c1=O (stereo not drawn) [Compound 3]
constipation relief rate ([1]; 25 mg/kg oral, 8 hours before irinotecan and 4 hours after irinotecan): 50%
constipation relief rate ([1]; 25 mg/kg oral, 12 hours before irinotecan and 0 hours after irinotecan): 30%
constipation relief rate [1, 12]: 60%
constipation relief rate [1, 6]: 70%
Relief rate of 5-FU -induced cell apoptosis ([2]; concentration 0.1 μM): 20%
Relief rate of 5-FU -induced cell apoptosis ([2]; concentration 1 μM): 40%
Relief rate of 5-FU -induced cell apoptosis ([2]; concentration 5 μM): 40%
Relief rate of 5-FU -induced cell apoptosis ([2]; concentration 25 μM): 30%

IC50 (CDK4/cyclin D): < 0.05 µM
SMILES: CC(=O)c1c(C)c2cnc(Nc3ccc(N4CCN(S(=O)(=O)NCCCN)CC4)cn3)nc2n(C2CCCC2)c1=O [Compound 4]
constipation relief rate [1, 13]: 40%
constipation relief rate [1, 14]: 50%
constipation relief rate [1, 6]: 70%
constipation relief rate ([1]; 100 mg/kg oral, 8 hours before irinotecan and 4 hours after irinotecan): 40%
constipation relief rate ([1]; 100 mg/kg oral, 12 hours before irinotecan): 30%
Relief rate of 5-FU -induced cell apoptosis ([2]; concentration 10 μM): 40%
Relief rate of 5-FU -induced cell apoptosis ([2]; concentration 25 μM): 50%
Relief rate of 5-FU -induced cell apoptosis ([2]; concentration 50 μM): 50%
Relief rate of 5-FU -induced cell apoptosis ([2]; concentration 100 μM): 30%

IC50 (CDK4/cyclin D): < 0.1 µM
SMILES: CC(=O)c1c(C)c2cnc(Nc3ccc(N4CCN(S(=O)(=O)NCC(C)CN)CC4)cn3)nc2n(C2CCCC2)c1=O (stereo not drawn) [Compound 5]
constipation relief rate [1, 11]: 25%
constipation relief rate [1, 14]: 40%
constipation relief rate [1, 12]: 80%
constipation relief rate ([1]; 50 mg/kg oral, 8 hours before irinotecan and 4 hours after irinotecan): 60%
constipation relief rate [1, 7]: 50%
constipation relief rate ([1]; 100 mg/kg oral, 10 hours before irinotecan and 2 hours after irinotecan): 40%
Relief rate of 5-FU -induced cell apoptosis ([2]; concentration 0.5 μM): 10%
Relief rate of 5-FU -induced cell apoptosis ([2]; concentration 5 μM): 50%
Relief rate of 5-FU -induced cell apoptosis ([2]; concentration 50 μM): 40%
Relief rate of 5-FU -induced cell apoptosis ([2]; concentration 100 μM): 30%

IC50 (CDK4/cyclin D): < 0.05 µM
SMILES: CC(=O)c1c(C)c2cnc(Nc3ccc(N4CCN(S(=O)(=O)NCC(C)(C)CN)CC4)cn3)nc2n(C2CCCC2)c1=O [Compound 6]
constipation relief rate [1, 13]: 40%
constipation relief rate [1, 5]: 75%
constipation relief rate [1, 14]: 60%
constipation relief rate [1, 6]: 75%
constipation relief rate ([1]; 150 mg/kg oral, 12 hours before irinotecan): 25%
Relief rate of 5-FU -induced cell apoptosis ([2]; concentration 0.1 μM): 20%
Relief rate of 5-FU -induced cell apoptosis ([2]; concentration 1 μM): 40%
Relief rate of 5-FU -induced cell apoptosis ([2]; concentration 5 μM): 60%
Relief rate of 5-FU -induced cell apoptosis ([2]; concentration 25 μM): 70%
